Values joined by “and” are separate entries in the source; they are usually repeats but may differ in a detail not shown here. Equal entries are not always repeated. Where two headings read alike, the source gives them in different places.

Experimental findings from patent publication US10392398B2, “Inhibitors of Late SV40 Factor (LSF) as cancer chemotherapeutics” (TRUSTEES OF BOSTON UNIVERSITY, priority 2010, dated 2019) are described below.

Common to all, as to format: cell-based
One assay has as its system NIH/3T3 cells. Briefly: Cell proliferation assay (MTS), NIH/3T3. Particulars: Mus musculus, NIH3T3. The protocol:
(§1) Cells were plated at 3×10^4 cells/mL, A549 and HeLa, and 1×10^4 cells/mL, NIH/3T3, in 96-well plates and incubated for 24 h to allow for cell adhesion. LSF-library compounds were dissolved in DMSO, serial diluted in appropriate medium and added to cells in triplicate (2 plates). DMSO was added to control wells at a final concentration of 1%. After 72 h incubation in the presence of compound, confluent cells were assayed for growth proliferation with CellTiter 96® AQueous One Solution Cell Proliferation Assay (MTS) (Promega) according to the manufacturer's protocol. Plates were read at 490 nm on a microplate reader, and IC50 values were determined as the percentage of compound-treated cell growth to control cell growth. HCC cells—one hour after plating HCC cells onto 96-well plates, compound or vehicle (DMSO) was added to the desired concentrations, keeping DMSO at 0.5%. At indicated time points, cell viability was assayed using the CellTiter 96® Non-Radioactive Cell Proliferation Assay (MTT) (Promega).
(§2) QGY-7703 and A549 cells were cultured at 37° C. in 5% CO2 in DMEM (Dulbecco's modification of Eagle's Medium; Corning) supplemented with 10% Fetal Bovine Serum (FBS; Invitrogen). NIH-3T3 cells were cultured at 37° C. in 5% CO2 in DMEM supplemented with 10% Fetal Calf Serum (FCS; Atlanta Biologicals). For cell viability assays, 1,500 cells were seeded in 96-well plates and treated with FQI-34 or vehicle (DMSO) at appropriate concentrations (DMSO at 1%) after 20 hours. After 72-hour incubation with compound or vehicle, cell growth was assessed via the Promega CellTiter 96® AQueous One Solution Cell Proliferation Assay, a colorimetric method to determine the number of viable cells. 20 μL of the CellTiter 96® AQueous One Solution Reagent was added directly into cultured wells and incubated for one hour, after which the absorbance at 490 nm was read with a 96-well plate reader (Opys MR Microplate Reader). The CellTiter 96® AQueous One Solution contains an MTS tetrazolium compound which is bioreduced by cells into a colored formazan product that is soluble in tissue culture medium. The quantity of formazan product as measured by absorbance is directly proportional to the number of living cells in culture. GI50 values were determined from plots of the percentage of compound-treated cell growth to vehicle cell growth vs. compound concentration (GraphPad Prism; non-linear regression 4-parameter curve fit with variable slope).

Another assay concerns the target T1, LSF (Homo sapiens, UniProt Q12800).
T1 sequence (Q12800 1-502): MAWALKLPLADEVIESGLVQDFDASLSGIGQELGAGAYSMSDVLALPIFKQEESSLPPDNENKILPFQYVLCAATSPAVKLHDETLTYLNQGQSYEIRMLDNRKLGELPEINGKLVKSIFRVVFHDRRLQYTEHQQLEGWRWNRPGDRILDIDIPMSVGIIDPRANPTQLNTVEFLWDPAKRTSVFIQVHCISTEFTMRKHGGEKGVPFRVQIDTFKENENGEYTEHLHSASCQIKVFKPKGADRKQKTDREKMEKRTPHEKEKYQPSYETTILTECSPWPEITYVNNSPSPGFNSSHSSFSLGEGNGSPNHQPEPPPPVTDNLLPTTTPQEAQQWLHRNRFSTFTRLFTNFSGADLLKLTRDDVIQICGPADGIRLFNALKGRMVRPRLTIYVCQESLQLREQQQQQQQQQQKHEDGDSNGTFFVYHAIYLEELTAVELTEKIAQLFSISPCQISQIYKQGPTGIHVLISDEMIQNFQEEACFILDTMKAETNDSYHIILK
Briefly: LSF-dependent luciferase reporter assay in NIH 3T3 cells. Also noted: expressed in transfected cells; host or cells: NIH 3T3. How it is done: NIH 3T3 cells were transfected with the expression construct pEF1α-LSF, a LSF expression vector^6,20; the reporter construct pGL3B-WT4E1b, a firefly luciferase reporter vector driven by LSF^12; phRL-TK, a control renilla luciferase reporter vector; and pEFGP, essentially as previously described^12. Five hours after transfection, either vehicle (DMSO) or FQI compound was added, keeping DMSO at 0.5%. Cell extracts were harvested 36 hours post-transfection and firefly and renilla luciferase activities measured via a dual luciferase assay (Promega). Five μl of extract was mixed with 30 μl of luciferase assay reagent (Promega), and luminescence measured for 10 seconds using a 20/20n luminometer (Turner Biosystems). Subsequently, 30 μl of Stop & Glo reagent (Promega) was added, and luminescence also measured for 10 seconds. LSF transactivation activity is given as relative luciferase activity, the ratio of firefly to renilla activities.
NIH-3T3 cells were cultured at 37° C. in 5% CO2 in DMEM (Dulbecco's modification of Eagle's Medium; Corning) supplemented with 10% FCS (FCS; Atlanta Biologicals). Approximately 24 hours prior to transfection, 200,000 cells were plated in 35 mm dishes. After 24 hours, cells were ˜70% confluent, and were transfected for 5 hours with pEF1α-LSF, the reporter construct pGL3B-WT4E1b, phRLTK, and pEFGP (Grant, T. J. et al. Antiproliferative small-molecule inhibitors of transcription factor LSF reveal oncogene addiction to LSF in hepatocellular carcinoma. PNAS (2012), 109, 1-6). Vehicle (DMSO) or FQI-34 was then added, keeping the DMSO at 0.5%. Cell extracts were harvested 36 h post-transfection, and firefly and renilla luciferase activities were measured via a dual luciferase assay (Promega Dual-Luciferase Reporter Assay System). Relative luciferase activity represents firefly luciferase activity normalized to that of renilla luciferase in each extract. IC50 values were determined from plots of normalized luciferase activity vs. compound concentration (Prism GraphPad; non-linear regression 4-parameter curve fit with variable slope).
In general terms: In a reporter assay the amount or activity of a reporter protein is the signal.

In the next assay the test system is QGY-7703 cells. Briefly: TUNEL apoptosis assay, QGY-7703. Particulars: QGY-7703, 10 μM. How it is done: HCC cells were plated 24 h prior to incubation with FQI1. At the indicated time points, cells were analyzed using the FragEL™ DNA fragmentation kit (Calbiochem) according to the manufacturer's protocol. Flow cytometry was performed using a FACS caliber (Becton Dickinson) and analyzed with Cell Quest software.

A further assay relates to HeLa cells. Nature of the assay: Cell proliferation assay (MTS), HeLa. Particulars: Homo sapiens. The protocol: as §1
The test system of a further assay is A549 cells. Nature of the assay: Cell proliferation assay (MTS), A549. The settings on record: for GI50: MTS. The protocol: as §1, §2

On to `CCOc1ccccc1C1CC(=O)Nc2cc3c(cc21)OCO3` (racemic) [FQI1, 8-(2-ethoxyphenyl)-7,8-dihydro-[1,3]dioxolo[4,5-g]quinolin-6(5H)-one], for which the GI50 with NIH/3T3 cells (72 h, MTS, read-out: GI50 (μM) NIH/3T3) amounted to 3 µM; in the assay on NIH/3T3 cells (Table 3, read-out: GI50 (μM) NIH 3T3), 3 ± 0.9 µM; with HeLa cells (72 h, MTS), 0.79 µM; with A549 cells (Homo sapiens, 72 h, read-out: GI50 (μM) A549), 6.3 µM. Besides, the IC50 is 3000 ± 850 nM in the assay on NIH/3T3 cells (Example 7, FIG. 8, read-out: growth inhibition of NIH/3T3 Cell Line IC50); ~2.4 µM and 2.4 µM on LSF (NIH 3T3 cells, dual luciferase, ranges where few concentrations tested, read-out: IC50 (μM) LSF-dependent reporter assat NIH 3T3); 790 ± 35 nM in the assay with HeLa cells (HeLa, Example 7, FIG. 8, read-out: growth inhibition of HeLa Cell Line IC50); 6.3 ± 1.1 µM with A549 cells (Homo sapiens, Example 7, FIG. 8, read-out: growth inhibition of A549 Cell Line IC50). The “apoptosis in flow cytometric TUNEL assay” value in the assay on QGY-7703 cells was 90%.
Turning to `CCOc1cc(N(C)C)ccc1C1CC(=O)Nc2cc3c(cc21)OCO3` (centres unmarked) [FQI-34, 8-(4-(dimethylamino)-2-ethoxyphenyl)-7,8-dihydro-[1,3]dioxolo[4,5-g]quinolin-6(5H)-one], the GI50 with NIH/3T3 cells (1,500 cells seeded, 72-hour incubation, MTS, read-out: GI50 in NIH-3T3 cells) was found to be 1.49 µM; in the assay on A549 cells (Homo sapiens, 1,500 cells seeded, 72-hour incubation, read-out: GI50 in A549 cells) it was 1.8 µM. Also, the IC50 on LSF (Table 5, read-out: LSF-reporter assay IC50) came out at 0.726 µM; at LSF (Table 8, read-out: LSF-reporter assay IC50), 0.726 µM; at LSF (dual-luciferase reporter, NIH-3T3, FIG. 12, read-out: LSF-Target affinity IC50) it was 0.59 µM.
